Experiments:
Assay in all cases: Kinase profiling in a biochemical assay panel (mobility shift assays and ELISA), %-inhibition at 1 μM; selectivity entropy
[1] = target: panel of more than 300 wild-type and mutant kinases (313 kinase panel) (Homo sapiens, UniProt P12931)
[2] = target: T1, panel of more than 300 wild-type and mutant kinases (313 kinase panel) (Homo sapiens, UniProt Q96PF2)
T1 sequence (Q96PF2 1-358): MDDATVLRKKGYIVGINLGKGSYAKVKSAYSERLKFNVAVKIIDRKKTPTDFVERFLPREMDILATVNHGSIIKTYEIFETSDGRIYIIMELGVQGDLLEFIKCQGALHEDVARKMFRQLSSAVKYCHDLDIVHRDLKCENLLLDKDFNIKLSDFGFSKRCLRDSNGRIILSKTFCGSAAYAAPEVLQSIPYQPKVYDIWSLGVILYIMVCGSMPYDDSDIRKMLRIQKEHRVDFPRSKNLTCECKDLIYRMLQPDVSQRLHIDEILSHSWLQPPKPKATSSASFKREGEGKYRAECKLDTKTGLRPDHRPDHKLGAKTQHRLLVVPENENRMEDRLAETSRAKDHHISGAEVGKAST

[3] = target: T2, panel of more than 300 wild-type and mutant kinases (313 kinase panel) (Homo sapiens, UniProt Q14164)
T2 sequence (Q14164 1-716): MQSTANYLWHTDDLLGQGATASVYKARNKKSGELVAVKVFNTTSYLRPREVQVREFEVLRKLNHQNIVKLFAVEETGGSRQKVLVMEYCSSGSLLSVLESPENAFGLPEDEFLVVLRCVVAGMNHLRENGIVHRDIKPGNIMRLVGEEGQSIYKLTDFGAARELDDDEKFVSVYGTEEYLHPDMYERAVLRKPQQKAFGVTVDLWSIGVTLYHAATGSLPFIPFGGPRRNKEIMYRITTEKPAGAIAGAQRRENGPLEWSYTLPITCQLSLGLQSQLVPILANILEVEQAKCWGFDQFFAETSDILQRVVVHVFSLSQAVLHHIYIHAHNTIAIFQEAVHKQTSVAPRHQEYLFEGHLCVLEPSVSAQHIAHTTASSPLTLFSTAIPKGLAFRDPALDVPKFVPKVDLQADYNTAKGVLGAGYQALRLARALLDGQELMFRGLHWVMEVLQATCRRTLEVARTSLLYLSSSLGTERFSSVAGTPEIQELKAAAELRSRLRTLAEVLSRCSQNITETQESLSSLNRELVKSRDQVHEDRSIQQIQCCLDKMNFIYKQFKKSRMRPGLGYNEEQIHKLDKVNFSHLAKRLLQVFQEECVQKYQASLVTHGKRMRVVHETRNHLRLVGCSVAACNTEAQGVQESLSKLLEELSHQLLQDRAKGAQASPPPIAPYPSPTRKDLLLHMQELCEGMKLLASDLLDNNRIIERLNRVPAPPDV

[4] = target: panel of more than 300 wild-type and mutant kinases (313 kinase panel) (Homo sapiens, UniProt P07949, G691S)
[5] = target: panel of more than 300 wild-type and mutant kinases (313 kinase panel) (Homo sapiens, UniProt P04626); settings: kinase HER2; compound at 1 μM
[6] = target: T3, panel of more than 300 wild-type and mutant kinases (313 kinase panel) (Homo sapiens, UniProt P21709)
T3 sequence (P21709 26-976): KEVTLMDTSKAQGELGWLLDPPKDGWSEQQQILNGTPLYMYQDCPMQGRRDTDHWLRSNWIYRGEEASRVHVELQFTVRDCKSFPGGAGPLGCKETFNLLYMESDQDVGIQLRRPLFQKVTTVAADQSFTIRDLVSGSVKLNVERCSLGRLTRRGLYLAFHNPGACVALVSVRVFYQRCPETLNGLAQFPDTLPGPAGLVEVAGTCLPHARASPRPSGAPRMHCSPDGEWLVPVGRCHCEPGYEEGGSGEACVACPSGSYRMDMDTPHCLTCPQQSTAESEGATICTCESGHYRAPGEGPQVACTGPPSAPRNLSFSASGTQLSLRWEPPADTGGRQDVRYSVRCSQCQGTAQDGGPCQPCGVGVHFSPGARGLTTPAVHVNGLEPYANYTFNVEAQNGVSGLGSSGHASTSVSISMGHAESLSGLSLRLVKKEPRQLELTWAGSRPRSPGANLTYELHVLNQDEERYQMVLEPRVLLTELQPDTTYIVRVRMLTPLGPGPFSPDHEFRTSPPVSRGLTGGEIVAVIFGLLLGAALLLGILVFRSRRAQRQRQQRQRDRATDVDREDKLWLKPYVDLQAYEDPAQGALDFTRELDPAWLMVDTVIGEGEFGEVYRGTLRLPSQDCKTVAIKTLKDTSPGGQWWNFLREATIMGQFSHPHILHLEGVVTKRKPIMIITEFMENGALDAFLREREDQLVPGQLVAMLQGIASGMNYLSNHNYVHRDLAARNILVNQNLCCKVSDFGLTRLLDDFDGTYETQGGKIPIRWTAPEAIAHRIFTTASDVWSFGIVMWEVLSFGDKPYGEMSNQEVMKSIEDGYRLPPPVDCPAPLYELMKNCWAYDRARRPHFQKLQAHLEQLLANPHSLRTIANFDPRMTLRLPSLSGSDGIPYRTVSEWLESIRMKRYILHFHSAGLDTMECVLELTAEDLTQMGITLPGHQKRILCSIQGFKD

[7] = target: panel of more than 300 wild-type and mutant kinases (313 kinase panel) (Homo sapiens, UniProt Q9H4A3)
[8] = target: panel of more than 300 wild-type and mutant kinases (313 kinase panel) (Homo sapiens, UniProt P53779)
[9] = target: panel of more than 300 wild-type and mutant kinases (313 kinase panel) (Homo sapiens, UniProt P31751)

SMILES	%-inhibition of SRC ([1]; kinase SRC, 1 μM)	%-inhibition of TSSK2 ([2]; kinase TSSK2, 1 μM)	%-inhibition of IKKε ([3]; kinase IKKε, compound at 1 μM)	%-inhibition of RET(G691S) ([4]; kinase RET(G691S), 1 μM)	%-inhibition of HER2 [5]	%-inhibition of EPHA1 ([6]; kinase EPHA1, compound at 1 μM)	%-inhibition of WNK1 ([7]; kinase WNK1, compound at 1 μM)	%-inhibition of JNK3 ([8]; kinase JNK3, compound at 1 μM)	%-inhibition, AKT2 ([9]; 1 µM)	%-inhibition, AKT2 ([9]; kinase AKT2, 1 μM compound)	%-inhibition of SRC ([1]; 1 µM)	%-inhibition of TSSK2 ([2]; 1 µM)	%-inhibition of IKKε ([3]; 1 µM)	%-inhibition of WNK1 ([7]; 1 µM)	%-inhibition of RET(G691S) ([4]; 1 µM)	%-inhibition of JNK3 ([8]; 1 µM)	%-inhibition of EPHA1 ([6]; 1 µM)
Cc1ccc(C(=O)Nc2ccc(CN3CCN(C)CC3)c(C(F)(F)F)c2)cc1C#Cc1cnc2cccnn12 [ponatinib]	102%	-8%	-9%	102%	88%	97%	–	–	–	–	–	–	–	–	–	–	–
CC(C)(C)c1nc(-c2cccc(NS(=O)(=O)c3c(F)cccc3F)c2F)c(-c2ccnc(N)n2)s1 [dabrafenib]	68%	-1.73%	15%	53%	50%	44%	1.14%	5.59%	–	–	–	–	–	–	–	–	–
COc1cc(Nc2c(C#N)cnc3cc(OCCCN4CCN(C)CC4)c(OC)cc23)c(Cl)cc1Cl [bosutinib]	96%	-9%	4.39%	94%	88%	3%	–	–	-2.57%	–	–	–	–	–	–	–	–
Cc1nc(Nc2ncc(C(=O)Nc3c(C)cccc3Cl)s2)cc(N2CCN(CCO)CC2)n1 [dasatinib]	–	–	–	–	–	101%	–	–	–	–	–	–	–	–	–	–	–
CO[C@H]1C[C@@H]2CC[C@@H](C)[C@@](O)(O2)C(=O)C(=O)N2CCCC[C@H]2C(=O)O[C@H]([C@H](C)C[C@@H]2CC[C@@H](OC(=O)C(C)(CO)CO)[C@H](OC)C2)CC(=O)[C@H](C)/C=C(\C)[C@@H](O)[C@@H](OC)C(=O)[C@H](C)C[C@H](C)/C=C/C=C/C=C/1C [temsirolimus]	0.915%	-0.179%	-11%	-6%	-0.179%	-15%	-4.27%	-1.22%	–	-1.77%	–	–	–	–	–	–	–
C#Cc1cccc(Nc2ncnc3cc(OCCOC)c(OCCOC)cc23)c1 [erlotinib]	–	–	–	–	–	–	–	–	8%	–	46%	2%	5%	1.82%	73%	22%	28%
CCCS(=O)(=O)Nc1ccc(F)c(C(=O)c2c[nH]c3ncc(-c4ccc(Cl)cc4)cc23)c1F [vemurafenib]	52%	-11%	-9%	23%	2%	-9%	10%	2.85%	–	-3%	–	–	–	–	–	–	–
N#CC[C@H](C1CCCC1)n1cc(-c2ncnc3[nH]ccc23)cn1 [ruxolitinib]	16%	-10%	15%	–	-3.75%	43%	-4%	-3%	–	-3.68%	–	–	–	–	–	–	–
CC(=O)Nc1cccc(-n2c(=O)n(C3CC3)c(=O)c3c(Nc4ccc(I)cc4F)n(C)c(=O)c(C)c32)c1 [trametinib]	-5.4%	-1.73%	-3.63%	-1.48%	-5.36%	-1.61%	-1.42%	-2.37%	–	-8%	–	–	–	–	–	–	–
COc1cc2c(Nc3ccc(Br)cc3F)ncnc2cc1OCC1CCN(C)CC1 [vandetanib]	–	-9%	-6.49%	–	67%	99%	-2.36%	-0.407%	–	-1.77%	–	–	–	–	–	–	–
C[C@@H](Oc1cc(-c2cnn(C3CCNCC3)c2)cnc1N)c1c(Cl)ccc(F)c1Cl [crizotinib]	–	0.896%	7.49%	–	-0.714%	97%	-3%	-1.87%	–	-2.67%	–	–	–	–	–	–	–
CN(C)C/C=C/C(=O)Nc1cc2c(Nc3ccc(F)c(Cl)c3)ncnc2cc1O[C@H]1CCOC1 [afatinib]	–	2%	–	–	–	–	–	–	–	–	–	–	–	–	–	–	–
Cc1ccc(Nc2nccc(N(C)c3ccc4c(C)n(C)nc4c3)n2)cc1S(N)(=O)=O [pazopanib]	67%	-2.46%	0%	–	1.07%	54%	-3.67%	–	–	-2%	–	–	–	–	–	–	–
COc1cc2nccc(Oc3ccc(NC(=O)C4(C(=O)Nc5ccc(F)cc5)CC4)cc3)c2cc1OC [cabozantinib]	92%	0.418%	-7.58%	–	10%	84%	-1.85%	-2%	–	-3.78%	–	–	–	–	–	–	–
